Measured values from BigSolDB 2.1.

c1ccc(-c2ccc(C(c3ccccc3)n3ccnc3)cc2)cc1 (stereo unspecified)
Conditions | solubility (mole fraction)
in DMF, 283.17 K | 0.0149
in DMF, 288.13 K | 0.0177
in DMF, 293.15 K | 0.0208
in DMF, 298.18 K | 0.0245
in DMF, 303.14 K | 0.029
in DMF, 308.09 K | 0.0341
in DMF, 313.25 K | 0.0403
in DMF, 318.13 K | 0.0482
in DMF, 323.18 K | 0.0565
in acetonitrile, 283.24 K | 0.00109
in acetonitrile, 288.17 K | 0.0014
in acetonitrile, 293.15 K | 0.00176
in acetonitrile, 298.14 K | 0.00221
in acetonitrile, 303.08 K | 0.00277
in acetonitrile, 308.13 K | 0.00347
in acetonitrile, 313.16 K | 0.00439
in acetonitrile, 318.14 K | 0.00541
in acetonitrile, 323.11 K | 0.00682
in ethanol, 283.15 K | 0.0028
in ethanol, 288.18 K | 0.00342
in ethanol, 293.13 K | 0.00407
in ethanol, 298.15 K | 0.00512
in ethanol, 303.17 K | 0.0064
in ethanol, 308.14 K | 0.00782
in ethanol, 313.15 K | 0.00965
in ethanol, 318.2 K | 0.0122
in ethanol, 323.14 K | 0.0151
in ethyl acetate, 283.16 K | 0.00238
in ethyl acetate, 288.14 K | 0.00305
in ethyl acetate, 293.17 K | 0.00385
in ethyl acetate, 298.13 K | 0.00471
in ethyl acetate, 303.18 K | 0.00579
in ethyl acetate, 308.12 K | 0.00724
in ethyl acetate, 313.1 K | 0.00892
in ethyl acetate, 318.13 K | 0.0113
in ethyl acetate, 323.1 K | 0.0139
in isobutanol, 283.14 K | 0.00308
in isobutanol, 288.17 K | 0.0041
in isobutanol, 293.13 K | 0.00528
in isobutanol, 298.12 K | 0.00659
in isobutanol, 303.16 K | 0.00865
in isobutanol, 308.15 K | 0.0114
in isobutanol, 313.19 K | 0.0148
in isobutanol, 318.14 K | 0.0197
in isobutanol, 323.16 K | 0.0256
in isopentanol, 283.13 K | 0.00402
in isopentanol, 288.17 K | 0.00512
in isopentanol, 293.07 K | 0.00652
in isopentanol, 298.14 K | 0.00831
in isopentanol, 303.17 K | 0.0105
in isopentanol, 308.13 K | 0.0133
in isopentanol, 313.18 K | 0.0171
in isopentanol, 318.15 K | 0.0216
in isopentanol, 323.24 K | 0.0281
in isopropanol, 283.16 K | 0.00137
in isopropanol, 288.14 K | 0.00173
in isopropanol, 293.15 K | 0.0022
in isopropanol, 298.18 K | 0.00285
in isopropanol, 303.17 K | 0.00362
in isopropanol, 308.13 K | 0.00472
in isopropanol, 313.16 K | 0.00605
in isopropanol, 318.1 K | 0.00802
in isopropanol, 323.14 K | 0.0105
in methyl acetate, 283.12 K | 0.00263
in methyl acetate, 288.14 K | 0.00334
in methyl acetate, 293.15 K | 0.00413
in methyl acetate, 298.19 K | 0.00509
in methyl acetate, 303.17 K | 0.00618
in methyl acetate, 308.14 K | 0.0076
in methyl acetate, 313.18 K | 0.00926
in methyl acetate, 318.15 K | 0.0111
in methyl acetate, 323.13 K | 0.013
in n-butanol, 283.15 K | 0.00386
in n-butanol, 288.19 K | 0.00509
in n-butanol, 293.16 K | 0.00645
in n-butanol, 298.14 K | 0.00808
in n-butanol, 303.15 K | 0.01
in n-butanol, 308.23 K | 0.0132
in n-butanol, 313.11 K | 0.0163
in n-butanol, 318.18 K | 0.0203
in n-butanol, 323.14 K | 0.0257
in n-butyl acetate, 283.13 K | 0.00191
in n-butyl acetate, 288.16 K | 0.00233
in n-butyl acetate, 293.14 K | 0.00285
in n-butyl acetate, 298.19 K | 0.00345
in n-butyl acetate, 303.15 K | 0.00434
in n-butyl acetate, 308.18 K | 0.00527
in n-butyl acetate, 313.14 K | 0.00676
in n-butyl acetate, 318.13 K | 0.00835
in n-butyl acetate, 323.15 K | 0.0109
in n-pentanol, 283.1 K | 0.00445
in n-pentanol, 288.13 K | 0.00581
in n-pentanol, 293.15 K | 0.00739
in n-pentanol, 298.19 K | 0.00941
in n-pentanol, 303.16 K | 0.0117
in n-pentanol, 308.14 K | 0.0149
in n-pentanol, 313.17 K | 0.0184
in n-pentanol, 318.16 K | 0.0234
in n-pentanol, 323.12 K | 0.029
in n-propanol, 283.12 K | 0.00381
in n-propanol, 288.14 K | 0.00458
in n-propanol, 293.15 K | 0.00585
in n-propanol, 298.18 K | 0.00719
in n-propanol, 303.16 K | 0.00909
in n-propanol, 308.21 K | 0.0115
in n-propanol, 313.16 K | 0.0143
in n-propanol, 318.19 K | 0.0172
in n-propanol, 323.17 K | 0.0211
in n-propyl acetate, 283.15 K | 0.00215
in n-propyl acetate, 288.16 K | 0.00261
in n-propyl acetate, 293.09 K | 0.00342
in n-propyl acetate, 298.14 K | 0.00433
in n-propyl acetate, 303.15 K | 0.00541
in n-propyl acetate, 308.17 K | 0.00683
in n-propyl acetate, 313.11 K | 0.0087
in n-propyl acetate, 318.16 K | 0.0106
in n-propyl acetate, 323.1 K | 0.0131
in sec-butanol, 283.13 K | 0.00212
in sec-butanol, 288.16 K | 0.00286
in sec-butanol, 293.14 K | 0.0037
in sec-butanol, 298.17 K | 0.00503
in sec-butanol, 303.15 K | 0.00647
in sec-butanol, 308.12 K | 0.00841
in sec-butanol, 313.19 K | 0.011
in sec-butanol, 318.16 K | 0.0145
in sec-butanol, 323.15 K | 0.0183
